Assay results taken from PubChem BioAssay (NCI).
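These data come from cells grown in 96-well plates and exposed to compound for 48 hours at five concentrations. At the TGI there is no net growth.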

Experiments:
Test in all cases: NCI-60 cell line screen, 48 h
[1] = system: SNB-75 CNS
[2] = system: HS 578T breast
[3] = system: MALME-3M melanoma
[4] = system: RXF 393 renal
[5] = system: K-562 leukemia
[6] = system: BT-549 breast
[7] = system: NCI-H23 lung
[8] = system: MDA-MB-231 breast
[9] = system: OVCAR-8 ovarian
[10] = system: MDA-MB-435
[11] = system: HCT-116 colon
[12] = system: SF-539 CNS
[13] = system: SK-MEL-5 melanoma
[14] = system: RPMI-8226 leukemia
[15] = system: SF-268 CNS
[16] = system: HCT-15 colon
[17] = system: HL-60(TB) leukemia

Compound | TGI [1] [µM] | TGI [2] [µM] | TGI [3] [µM] | TGI [4] [µM] | TGI [5] [µM] | TGI [6] [µM] | TGI [7] [µM] | TGI [8] [µM] | TGI [9] [µM] | TGI [10] [µM] | TGI [11] [µM] | TGI [12] [µM] | TGI [13] [µM] | TGI [14] [µM] | TGI [15] [µM] | TGI [16] [µM] | TGI [17] [µM]
CN(C)c1ccc(/C=C(\NC(=O)c2ccccc2)C(=O)NC(CCC(=O)O)C(=O)O)cc1 (stereo unspecified) | > 100 | > 100 | > 100 | > 100 | > 100 | > 100 | > 100 | > 100 | > 100 | > 100 | > 100 | > 100 | > 100 | > 100 | > 100 | > 100 | > 100
CC1(C)CN=C(Nc2cccc(C(F)(F)F)c2)S1 | > 100 | > 100 | > 100 | > 100 | > 100 | > 100 | > 100 | 16.3 | > 100 | > 100 | > 100 | > 100 | > 100 | > 100 | > 100 | > 100 | > 100
c1ccc2c(c1)Nc1nc3nonc3nc1N2 | – | > 100 | > 100 | > 100 | > 100 | > 100 | > 100 | > 100 | > 100 | > 100 | > 100 | – | > 100 | > 100 | > 100 | > 100 | > 100
CC(C)NC(=O)OCc1c(COC(=O)NC(C)C)n(C)c2c1ccc1ccccc12 | 7.11 | 7.12 | 2.24 | 2.65 | > 20 | 1.58 | 3.17 | 3.6 | 4.5 | 4.9 | 2.82 | 3.5 | 6.63 | 3.92 | 6.2 | 3.09 | 22.4
COC(=O)C1(Cc2ccccc2)Cc2ccc3c(c2C1=O)CCC3 (stereo unspecified) | > 100 | > 84.3 | 25.4 | > 69.5 | > 100 | > 87.7 | > 78.6 | > 100 | > 100 | > 77.9 | > 100 | > 76.9 | 49.9 | > 90.3 | > 100 | > 100 | > 63.3
O=C(O)CC/C(=N\Nc1nsc2ccccc12)c1ccc(Cl)cc1 | 73.1 | > 100 | > 100 | > 53.7 | > 100 | 74.3 | 59.2 | 93.2 | > 100 | 75.3 | 68.9 | > 89.8 | > 31.6 | 45.9 | > 89.3 | 53.5 | 59.9
Cn1c2ccccc2c(=NNc2ccccc2C(=O)O)c2ccccc21 | 67 | 83.1 | 43.7 | 33.3 | 28.5 | 61 | 76.8 | 59.1 | 66.2 | 39.6 | 37.7 | 36.1 | 28 | 53.3 | 56.3 | 27.5 | 44.5
CCOC(=O)c1c(-c2ccc(OC)cc2)c(C#N)c(=S)n(C2OC(CO)C(O)C(O)C2O)c1-c1ccccc1 (stereo unspecified) | > 100 | 70 | > 100 | 75.7 | > 100 | > 100 | > 100 | > 100 | – | 95.9 | 85.3 | > 100 | 26.5 | > 100 | > 100 | > 100 | > 100
N#CCCN(CCC#N)c1ccc(/C=C2\N=C(c3ccccc3)N(c3ccccn3)C2=O)cc1 | – | > 100 | > 100 | > 100 | > 100 | > 100 | – | > 100 | > 100 | > 100 | > 100 | > 100 | > 100 | > 100 | > 100 | > 100 | > 100
CNC(=O)CCCN(C)C(=O)CCCCC(=O)N(C)C | > 100 | > 100 | > 100 | > 100 | > 100 | > 100 | > 100 | > 100 | > 100 | > 100 | > 100 | > 100 | > 100 | > 100 | > 100 | > 100 | > 100
CN(C)c1ccc(/C=C(\NC(=O)c2ccccc2)C2NC(Cc3c[nH]c4ccccc34)C(=O)O2)cc1 (stereo unspecified) | > 100 | > 54.9 | 79.6 | > 100 | > 100 | > 45.2 | > 100 | > 100 | > 100 | > 100 | > 100 | – | > 100 | > 49 | > 100 | > 93.5 | 39.9
O=c1oc2ccc3ccccc3c2cc1-c1nc2ccccc2o1 | 40.7 | > 68.8 | 26.5 | 34.4 | > 100 | > 61.4 | > 63.3 | 35.6 | 51.2 | > 60.6 | > 53.6 | 29.3 | 58.8 | > 63.4 | 48.4 | > 100 | > 100
CCOC(=O)CCC(NC(=O)c1ccc(Nc2nc3ccccc3nc2-c2cccs2)cc1)C(=O)OCC (stereo unspecified) | > 100 | > 100 | > 100 | > 100 | > 100 | > 100 | > 100 | > 100 | > 100 | > 100 | > 100 | > 100 | > 100 | > 100 | > 100 | > 100 | > 100
NC1=NNC2(C(N)=N1)c1ccccc1-c1ccccc12 | > 10 | > 10 | > 10 | > 10 | – | > 10 | > 10 | > 10 | > 10 | > 10 | > 10 | > 10 | > 10 | > 10 | > 10 | > 10 | > 10
